Experimental findings from patent US20240382483A1, “HETEROCYCLIC EGFR INHIBITORS FOR USE IN THE TREATMENT OF CANCER” (Blueprint Medicines Corporation, priority 2021, published 2024) are described below.

Assay [1] addresses T1, intracellular phosphorylation of EGFR in NCI-H1975 cell line that harbors the EGFR L858R T790M mutations (Homo sapiens, UniProt P00533, L858R/T790M).
T1 construct: NCI-H1975 cell line that harbors the EGFR L858R T790M mutations (ATCC, CRL-5908); host or cells: NCI-H1975
The assay is described as follows: NCI-H1975 pEGFR AlphaLISA assay. It counts as cell-based. The following applies: NCI-H1975 cells (EGFR L858R T790M), p-EGFR (Tyr1068), 4-5 hours incubation; read-out: Ext pEGFR H1975 GMean IC50 (nM) Protocol: @Pharmaron AlphaLISA (Num). As to the method:
On the next day, the test compounds and DMSO control were added into H1975 cell plate followed by incubation at 37C/5% CO2 for 4-5 hours. […] Then 5 μL of a donor bead mix was added to each well followed by overnight incubation at room temperature in dark. On the next day, the plate was read at a compatible plate reader to obtain pEGFR signal. Percent of pEGFR inhibition was plotted against log concentration of compounds to generate IC50 values.
(Bead proximity is the source of the signal in Alpha formats.)

For another assay, the target named is T2, EGFR (L858R T790M C797S) (Homo sapiens, UniProt P00533, C797S/L858R/T790M).
T2 construct: purchased SignalChem E10-122VG
The assay is described as follows: Biochemical EGFR inhibition assay (Caliper mobility shift), EGFR LRTMCS. The method in brief:
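Kinase reactions proceed at 25° C. to 10%–20% conversion of total peptide, are terminated with 35 mM EDTA, and the phosphopeptide is resolved from substrate by electrophoretic mobility shift. Apparent IC50 values come from plotting percent activity against log compound concentration.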

The mark [2] stands for this setting: LRTMCS (PH) IC50 (nM) @ 1 mM ATP (Num), EGFR LRTMCS mutant.

Where two headings read alike, the source gives them in different places.

Broadly, the IC50 is the concentration that inhibits the measured activity by half.

T2 sequence (P00533 25-1210 T790M/C797S/L858R): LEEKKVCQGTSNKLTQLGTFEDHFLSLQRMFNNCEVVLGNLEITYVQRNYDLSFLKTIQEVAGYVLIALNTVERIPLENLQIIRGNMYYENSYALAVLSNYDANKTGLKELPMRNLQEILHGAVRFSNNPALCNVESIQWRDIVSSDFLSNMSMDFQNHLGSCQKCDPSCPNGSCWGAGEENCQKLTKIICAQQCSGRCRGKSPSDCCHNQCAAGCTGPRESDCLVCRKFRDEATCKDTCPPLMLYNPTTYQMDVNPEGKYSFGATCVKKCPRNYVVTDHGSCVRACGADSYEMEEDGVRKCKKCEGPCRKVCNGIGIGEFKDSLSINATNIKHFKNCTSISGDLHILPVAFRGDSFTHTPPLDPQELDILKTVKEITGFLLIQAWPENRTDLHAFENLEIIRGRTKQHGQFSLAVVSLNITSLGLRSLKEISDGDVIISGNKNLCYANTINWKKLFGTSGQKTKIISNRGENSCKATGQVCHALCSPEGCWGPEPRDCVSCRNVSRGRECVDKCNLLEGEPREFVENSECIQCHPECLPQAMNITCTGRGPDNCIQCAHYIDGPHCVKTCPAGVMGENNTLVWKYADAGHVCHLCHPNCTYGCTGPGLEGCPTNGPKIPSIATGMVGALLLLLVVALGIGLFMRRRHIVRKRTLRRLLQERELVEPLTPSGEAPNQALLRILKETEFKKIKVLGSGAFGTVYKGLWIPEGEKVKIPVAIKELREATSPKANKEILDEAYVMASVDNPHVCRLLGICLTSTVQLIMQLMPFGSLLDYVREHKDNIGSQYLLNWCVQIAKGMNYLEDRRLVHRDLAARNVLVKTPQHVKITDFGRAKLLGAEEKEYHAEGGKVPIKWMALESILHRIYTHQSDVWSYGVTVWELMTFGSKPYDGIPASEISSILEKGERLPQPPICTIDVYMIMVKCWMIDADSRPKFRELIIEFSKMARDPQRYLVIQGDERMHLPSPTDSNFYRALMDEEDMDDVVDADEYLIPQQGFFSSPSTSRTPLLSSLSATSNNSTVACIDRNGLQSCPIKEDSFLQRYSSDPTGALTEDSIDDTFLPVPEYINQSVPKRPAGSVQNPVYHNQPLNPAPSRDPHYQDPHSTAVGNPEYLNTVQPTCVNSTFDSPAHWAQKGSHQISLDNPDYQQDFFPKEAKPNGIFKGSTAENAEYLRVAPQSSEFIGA
T1 sequence (P00533 25-1210 T790M/L858R): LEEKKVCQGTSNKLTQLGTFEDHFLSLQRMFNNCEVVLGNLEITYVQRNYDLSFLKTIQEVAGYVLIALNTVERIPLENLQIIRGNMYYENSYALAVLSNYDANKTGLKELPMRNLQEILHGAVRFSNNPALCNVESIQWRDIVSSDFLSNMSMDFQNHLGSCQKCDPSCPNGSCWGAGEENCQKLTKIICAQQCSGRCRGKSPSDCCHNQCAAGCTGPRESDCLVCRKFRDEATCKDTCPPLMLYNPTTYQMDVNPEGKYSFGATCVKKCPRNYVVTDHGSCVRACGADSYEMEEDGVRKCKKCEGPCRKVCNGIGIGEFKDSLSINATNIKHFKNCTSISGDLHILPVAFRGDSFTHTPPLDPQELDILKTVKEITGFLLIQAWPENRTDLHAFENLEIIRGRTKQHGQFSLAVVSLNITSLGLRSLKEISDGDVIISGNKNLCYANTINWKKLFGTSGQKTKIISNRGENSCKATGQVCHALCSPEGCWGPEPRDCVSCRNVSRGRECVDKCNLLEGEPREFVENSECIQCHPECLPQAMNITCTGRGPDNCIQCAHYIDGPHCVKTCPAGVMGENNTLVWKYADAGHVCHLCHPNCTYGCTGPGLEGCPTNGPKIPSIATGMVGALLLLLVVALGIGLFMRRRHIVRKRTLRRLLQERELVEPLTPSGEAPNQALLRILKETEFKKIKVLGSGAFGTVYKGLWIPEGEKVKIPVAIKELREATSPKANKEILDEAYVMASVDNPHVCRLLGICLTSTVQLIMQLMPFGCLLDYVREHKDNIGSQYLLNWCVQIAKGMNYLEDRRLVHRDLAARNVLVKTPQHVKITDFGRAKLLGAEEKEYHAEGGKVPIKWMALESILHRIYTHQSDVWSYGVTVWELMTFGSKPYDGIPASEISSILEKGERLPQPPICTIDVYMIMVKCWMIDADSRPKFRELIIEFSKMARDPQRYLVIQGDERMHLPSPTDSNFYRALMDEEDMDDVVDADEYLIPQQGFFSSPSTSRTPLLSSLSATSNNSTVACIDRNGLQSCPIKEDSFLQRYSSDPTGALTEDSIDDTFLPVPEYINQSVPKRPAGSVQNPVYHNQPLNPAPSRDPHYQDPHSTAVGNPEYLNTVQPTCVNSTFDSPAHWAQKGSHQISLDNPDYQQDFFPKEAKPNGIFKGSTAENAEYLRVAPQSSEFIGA

As to `CC(C)c1cnc(-c2cn(C3COC3)cn2)c2cnc(Nc3ccnc(N4CC[C@@H](O)[C@@](C)(F)C4)n3)cc12` [Example 20, (3S,4R)-3-fluoro-1-(4-((5-isopropyl-8-(1-(oxetan-3-yl)-1H-imidazol-4-yl)-2,7-naphthyridin-3-yl)amino)pyrimidin-2-yl)-3-methylpiperidin-4-ol], the figures for the IC50 (in assay [1]; at EGFR (L858R T790M C797S) (setting [2])) were 30 to 50 nM and below 15 nM, respectively.
In the same order, the values of `COCCN1CC2(CCN2c2ncc(C(C)C)c3cc(Nc4ccnc(N5CC[C@@H](O)[C@@](C)(F)C5)n4)ncc23)C1` [Example 64, (3S,4R)-3-fluoro-1-(4-((5-isopropyl-8-(6-(2-methoxyethyl)-1,6-diazaspiro[3.3]heptan-1-yl)-2,7-naphthyridin-3-yl)amino)pyrimidin-2-yl)-3-methylpiperidin-4-ol] are 30 to 50 nM and below 15 nM.
For the compound `CC(C)c1cnc(N2CC[C@@]23CCN(C)C3)c2cnc(Nc3ccnc(N4CC[C@@H](O)[C@@](C)(F)C4)n3)cc12` (single isomer, unassigned) [Example 199, (3S,4R)-3-fluoro-1-(4-((5-isopropyl-8-((R)-6-methyl-1,6-diazaspiro[3.4]octan-1-yl)-2,7-naphthyridin-3-yl)amino)pyrimidin-2-yl)-3-methylpiperidin-4-ol or (3S,4R)-3-fluoro-1-(4-((5-isopropyl-8-((S)-6-methyl-1,6-diazaspiro[3.4]octan-1-yl)-2,7-naphthyridin-3-yl)amino)pyrimidin-2-yl)-3-methylpiperidin-4-ol], the figures for the half-inhibitory concentration (IC50) (in assay [1]; at EGFR (L858R T790M C797S) (setting [2])) were 20 to 30 nM and below 15 nM, respectively.
Consider `CC(C)c1cnc(N2CC[C@]3(C2)CC3(F)F)c2cnc(Nc3ccnc(N4CC[C@@H](O)[C@@](C)(F)C4)n3)cc12` (single isomer, unassigned) [Example 213, (3S,4R)-1-(4-((8-((R)-1,1-difluoro-5-azaspiro[2.4]heptan-5-yl)-5-isopropyl-2,7-naphthyridin-3-yl)amino)pyrimidin-2-yl)-3-fluoro-3-methylpiperidin-4-ol or (3S,4R)-1-(4-((8-((S)-1,1-difluoro-5-azaspiro[2.4]heptan-5-yl)-5-isopropyl-2,7-naphthyridin-3-yl)amino)pyrimidin-2-yl)-3-fluoro-3-methylpiperidin-4-ol], for which the IC50 in assay [1] is 10 to 20 nM; on EGFR (L858R T790M C797S) (setting [2]) it was below 15 nM.
For `CC(C)c1ncc(N2CCC23CN(C)C3)c2cnc(Nc3ccnc(N4CC[C@@H](O)[C@@](C)(F)C4)n3)cc12` [Example 195, (3S,4R)-3-fluoro-1-(4-((5-isopropyl-8-(6-methyl-1,6-diazaspiro[3.3]heptan-1-yl)-2,6-naphthyridin-3-yl)amino)pyrimidin-2-yl)-3-methylpiperidin-4-ol], the IC50 lay in the range of 30 to 50 nM in assay [1] and 20 to 30 nM on EGFR (L858R T790M C797S) (setting [2]).
Taken in the same sequence, the figures for `COC(=O)N1CC2(CCN2c2ncc(C(C)C)c3cc(Nc4ccnc(N5CC[C@@H](O)[C@@](C)(F)C5)n4)ncc23)C1` [Example 82, methyl 1-(6-((2-((3S,4R)-3-fluoro-4-hydroxy-3-methylpiperidin-1-yl)pyrimidin-4-yl)amino)-4-isopropyl-2,7-naphthyridin-1-yl)-1,6-diazaspiro[3.3]heptane-6-carboxylate] were 30 to 50 nM and 15 to 20 nM.
In the same order, the values of `CC(C)c1cnc(N2CC(C#N)(CO)C2)c2cnc(Nc3ccnc(N4CC[C@@H](O)[C@@](C)(F)C4)n3)cc12` [Example 73, 1-(6-((2-((3S,4R)-3-fluoro-4-hydroxy-3-methylpiperidin-1-yl)pyrimidin-4-yl)amino)-4-isopropyl-2,7-naphthyridin-1-yl)-3-(hydroxymethyl)azetidine-3-carbonitrile] are above 50 nM and 30 to 100 nM.
Taken in the same sequence, the figures for `CO[C@H]1CCN(c2nccc(Nc3cc4c(C(C)C)cnc(N5CC[C@H]5CN)c4cn3)n2)C[C@H]1F` [Example 165, 8-((S)-2-(aminomethyl)azetidin-1-yl)-N-(2-((3R,4S)-3-fluoro-4-methoxypiperidin-1-yl)pyrimidin-4-yl)-5-isopropyl-2,7-naphthyridin-3-amine] were 20 to 30 nM and below 15 nM.
Take `C[C@@H]1CCN1c1ncc([C@@H](C)C(=O)N(C)C)c2cc(Nc3ccnc(N4CC[C@@H](O)[C@@](C)(F)C4)n3)ncc12` (single isomer, unassigned) [Example 185, (R)-2-(6-((2-((3S,4R)-3-fluoro-4-hydroxy-3-methylpiperidin-1-yl)pyrimidin-4-yl)amino)-1-((R)-2-methylazetidin-1-yl)-2,7-naphthyridin-4-yl)-N,N-dimethylpropanamide or (S)-2-(6-((2-((3S,4R)-3-fluoro-4-hydroxy-3-methylpiperidin-1-yl)pyrimidin-4-yl)amino)-1-((R)-2-methylazetidin-1-yl)-2,7-naphthyridin-4-yl)-N,N-dimethylpropanamide]: the IC50 in assay [1] is above 50 nM; at EGFR (L858R T790M C797S) (setting [2]), 20 to 30 nM.
Taken in the same sequence, the figures for `CC(C)c1cnc(N2C[C@@H](F)[C@@H](F)C2)c2cnc(Nc3ccnc(N4CC[C@@H](O)[C@@](C)(F)C4)n3)cc12` [Example 56, (3S,4R)-1-(4-((8-(cis-3,4-difluoropyrrolidin-1-yl)-5-isopropyl-2,7-naphthyridin-3-yl)amino)pyrimidin-2-yl)-3-fluoro-3-methylpiperidin-4-ol] were above 50 nM and below 15 nM.
`[2H]C([2H])([2H])O[C@H]1CCN(c2nccc(Nc3cc4c(C(C)C)cnc(N5C[C@H](O)[C@H]5C)c4cn3)n2)C[C@H]1F` [Example 138, (2R,3S)-1-(6-((2-((3R,4S)-3-fluoro-4-(methoxy-d3)piperidin-1-yl)pyrimidin-4-yl)amino)-4-isopropyl-2,7-naphthyridin-1-yl)-2-methylazetidin-3-ol]: the half-maximal inhibitory concentration (IC50) was 10 to 20 nM in assay [1] and below 15 nM on EGFR (L858R T790M C797S) (setting [2]).
In the case of `C[C@H](CC#N)c1cnc(N2CC[C@H]2C)c2cnc(Nc3ccnc(N4CC[C@@H](O)[C@@](C)(F)C4)n3)cc12` (single isomer, unassigned) [Example 37, (R)-3-(6-((2-((3S,4R)-3-fluoro-4-hydroxy-3-methylpiperidin-1-yl)pyrimidin-4-yl)amino)-1-((R)-2-methylazetidin-1-yl)-2,7-naphthyridin-4-yl)butanenitrile or (S)-3-(6-((2-((3S,4R)-3-fluoro-4-hydroxy-3-methylpiperidin-1-yl)pyrimidin-4-yl)amino)-1-((R)-2-methylazetidin-1-yl)-2,7-naphthyridin-4-yl)butanenitrile], the IC50 in assay [1] is 10 to 20 nM; at EGFR (L858R T790M C797S) (read-out: LRTMCS (PH) IC50 (nM) @ 1 mM ATP (Num), EGFR LRTMCS mutant) it was below 15 nM.
On to `CC(=O)NCC1CCN1c1ncc(C(C)C)c2cc(Nc3ccnc(N4CC[C@@H](O)[C@@](C)(F)C4)n3)ncc12` (stereo partly drawn) [Example 70, N-((1-(6-((2-((3S,4R)-3-fluoro-4-hydroxy-3-methylpiperidin-1-yl)pyrimidin-4-yl)amino)-4-isopropyl-2,7-naphthyridin-1-yl)azetidin-2-yl)methyl)acetamide], for which the IC50 in assay [1] is above 50 nM; at EGFR (L858R T790M C797S) (setting [2]), 15 to 20 nM.
Consider `CC(C)c1ncc(N2CC[C@H]2C)c2cnc(Nc3ccnc(N4CC[C@@H](O)[C@@](C)(F)C4)n3)cc12` [Example 106, (3S,4R)-3-fluoro-1-(4-((5-isopropyl-8-((R)-2-methylazetidin-1-yl)-2,6-naphthyridin-3-yl)amino)pyrimidin-2-yl)-3-methylpiperidin-4-ol], for which the values for the IC50 (in assay [1]; at EGFR (L858R T790M C797S) (setting [2])) were 20 to 30 nM and below 15 nM, respectively.
In the same order, the values of `CC(C)c1ncc(-c2cn(C)nn2)c2cnc(Nc3ccnc(N4CC[C@@H](O)[C@@](C)(F)C4)n3)cc12` [Example 12, (3S,4R)-3-fluoro-1-(4-((5-isopropyl-8-(1-methyl-1H-1,2,3-triazol-4-yl)-2,6-naphthyridin-3-yl)amino)pyrimidin-2-yl)-3-methylpiperidin-4-ol] are 10 to 20 nM and below 15 nM.
For `CNC[C@@H]1CCN1c1ncc(C(C)C)c2cc(Nc3ccnc(N4CC[C@H](OC)[C@H](F)C4)n3)ncc12` [Example 164, N-(2-((3R,4S)-3-fluoro-4-methoxypiperidin-1-yl)pyrimidin-4-yl)-5-isopropyl-8-((S)-2-((methylamino)methyl)azetidin-1-yl)-2,7-naphthyridin-3-amine], the IC50 was 30 to 50 nM in assay [1] and below 15 nM on EGFR (L858R T790M C797S) (setting [2]).
Take `C[C@H](CO)c1cnc(N2CC[C@H]2C)c2cnc(Nc3ccnc(N4C[C@@H](F)[C@@H](O)C(C)(C)C4)n3)cc12` (single isomer, unassigned) [Example 187]: the IC50 in assay [1] was above 50 nM; at EGFR (L858R T790M C797S) (setting [2]), 30 to 100 nM.
`CC(C)c1cnc(N2CC(CC(=O)N(C)C)C2)c2cnc(Nc3ccnc(N4CC[C@@H](O)[C@@](C)(F)C4)n3)cc12` [Example 86, 2-(1-(6-((2-((3S,4R)-3-fluoro-4-hydroxy-3-methylpiperidin-1-yl)pyrimidin-4-yl)amino)-4-isopropyl-2,7-naphthyridin-1-yl)azetidin-3-yl)-N,N-dimethylacetamide]: the IC50 in assay [1] lay within 30 to 50 nM; on EGFR (L858R T790M C797S) (setting [2]), 20 to 30 nM.
